Source: patent US20230172204A1 (BASF SE, priority 2020, published 2023)

Legend:
[1] = system: Phakopsora pachyrhizi (F129L); assay: Protective control of soybean rust on soybeans (PHAKPA P2); assay type: in vivo; details: for % PHAKPA (F129L) Disease level P2 at 4 ppm: protective P2, 4 ppm; for % PHAKPA (F129L) Disease level P2 at 4 ppm / % PHAKPA (F129L) Disease level P2 at 16 ppm: soybean rust F129L; for % PHAKPA (F129L) Disease level P2 at 16 ppm: protective P2, 16 ppm; for PHAKPA (F129L) Disease level (%) P2 at 16 ppm / PHAKPA (F129L) Disease level (%) P2 at 4 ppm: P2 protective, % diseased leaf area
[2] = system: Phakopsora pachyrhizi (F129L); assay: Protective control of soybean rust on soybeans (PHAKPA P6); assay type: in vivo; details: for % PHAKPA (F129L) Disease level P6 at 4 ppm: protective P6, 4 ppm; for % PHAKPA (F129L) Disease level P6 at 4 ppm / % PHAKPA (F129L) Disease level P6 at 16 ppm: soybean rust F129L; for % PHAKPA (F129L) Disease level P6 at 16 ppm: protective P6, 16 ppm
[3] = P6 protective, % diseased leaf area

| Structure (SMILES) | % PHAKPA (F129L) Disease level P2 at 4 ppm [1] | % PHAKPA (F129L) Disease level P2 at 16 ppm [1] | % PHAKPA (F129L) Disease level P6 at 4 ppm [2] | % PHAKPA (F129L) Disease level P6 at 16 ppm [2] | PHAKPA (F129L) Disease level (%) P2 at 16 ppm [1] | PHAKPA (F129L) Disease level (%) P6 at 16 ppm [2, 3] | PHAKPA (F129L) Disease level (%) P2 at 4 ppm [1] | PHAKPA (F129L) Disease level (%) P6 at 4 ppm ([2]; P6 protective, 4 ppm, % diseased leaf area) |
| --- | --- | --- | --- | --- | --- | --- | --- | --- |
| CO/C=C(/C(=O)OC)c1cccc(C)c1CO/N=C(\C)c1ccc(-c2ccccc2)cc1OC(F)(F)F [compound 433] | 83% | 67% | 80% | 57% | – | – | – | – |
| CO/N=C(/C(=O)OC)c1cccc(C)c1CO/N=C(\C)c1cccc(C(C)C)c1 [compound 95] | 11% | 0% | 33% | 4% | – | – | – | – |
| CO/N=C(/C(=O)OC)c1cccc(C)c1CO/N=C(\CC(F)(F)F)c1cccc(C(F)(F)F)c1 [compound 250] | 90% | 90% | 90% | 80% | – | – | – | – |
| CNC(=O)/C(=N/OC)c1cccc(C)c1CO/N=C(\C)c1ccccc1OC(F)F [compound 252] | 50% | 3% | 87% | 32% | – | – | – | – |
| CNC(=O)/C(=N/OC)c1cccc(C)c1CO/N=C(/c1ccc(Cl)cc1)C(F)F [compound 22] | 100% | 90% | 100% | 93% | – | – | – | – |
| CNC(=O)/C(=N/OC)c1cccc(C)c1CO/N=C(\C)c1cccc(C(C)(C)C)c1 [compound 100] | 18% | 0% | 25% | 4% | – | – | – | – |
| CO/N=C(/C(=O)OC)c1cccc(C)c1CO/N=C(\C)c1cccc(Cl)c1C(F)(F)F [compound 421] | 100% | 33% | 87% | 57% | – | – | – | – |
| CO/N=C(/C(=O)OC)c1cccc(C)c1CO/N=C(\C)c1cc(C#N)cc(C(F)(F)F)c1 [compound 48] | 100% | 80% | 100% | 67% | – | – | – | – |
| CO/N=C(\C)c1ccc(/C(C)=N/OCc2c(C)cccc2/C(=N\OC)C(=O)OC)cc1 [Ex. 181] | 22% | 11% | 33% | 5% | 12% | 5% | – | – |
| CNC(=O)/C(=N/OC)c1cccc(C)c1CO/N=C(\C)c1ccc(C)c(C(F)(F)F)c1 [compound 230] | 22% | 1% | 73% | 4% | – | – | – | – |
| CO/N=C(/C(=O)OC)c1cccc(C)c1CO/N=C(\SC)c1cccc(C)c1 [drawing 972, reference compound] | – | – | – | – | – | 30% | 60% | – |
| CNC(=O)/C(=N/OC)c1cccc(C)c1CO/N=C(\C)c1cccc(F)c1OC(F)(F)F [compound 354] | 17% | 2% | 21% | 4% | – | – | – | – |
| CNC(=O)/C(=N/OC)c1cccc(C)c1CO/N=C(\C)c1ccccc1CC(C)C [compound 221] | 100% | 63% | 100% | 100% | – | – | – | – |
| CNC(=O)/C(=N/OC)c1cccc(C)c1CO/N=C(\C)c1ccc(OC(F)(F)F)cc1C [compound 261] | 70% | 9% | 87% | 32% | – | – | – | – |
| CNC(=O)/C(=N/OC)c1ccccc1CO/N=C(\C)c1cccc(-c2noc(C(F)(F)F)n2)c1 [reference compound] | – | – | – | – | 23% | 32% | – | – |
| CNC(=O)/C(=N/OC)c1cccc(C)c1CO/N=C(\C)c1ccccc1OC(F)(F)F [compound 184] | 42% | 4% | 16% | 1% | – | – | – | – |
| C#Cc1ccc(/C(C)=N/OCc2c(C)cccc2/C(=N\OC)C(=O)OC)cc1 [compound 172] | 35% | 1% | 83% | 12% | – | – | – | – |
| CO/N=C(/c1cccc(/C(C)=N/OCc2c(C)cccc2/C(=N\OC)C(=O)OC)c1)C(F)(F)F [compound 70] | 30% | 0% | 10% | 1% | – | – | – | – |
| CNC(=O)/C(=N/OC)c1cccc(C)c1CO/N=C(\C)c1ccc(C)cc1 [Ex. 6, (2E)-2-Methoxyimino-N-methyl-2-[3-methyl-2-[[(E)-1-(p-tolyl)ethylideneamino]oxymethyl]phenyl]acetamide] | 1% | 0% | 19% | 1% | – | – | 0% | 23% |
| CNC(=O)/C(=N/OC)c1cccc(C)c1CO/N=C(\C)c1cccc(Br)c1F [compound 141] | 2% | 0% | 2% | 0% | – | – | – | – |
| CNC(=O)/C(=N/OC)c1cccc(C)c1CO/N=C(\C)c1cccc(C(F)F)c1 [Ex. 12] | 25% | 1% | 37% | 9% | 3% | 9% | – | – |
| CNC(=O)/C(=N/OC)c1cccc(C)c1CO/N=C(\C)c1cc(Br)ccc1F [compound 140] | 8% | 0% | 13% | 4% | – | – | – | – |
| CO/N=C(/C(=O)OC)c1cccc(C)c1CO/N=C(\C)c1cccc(C#CC(F)(F)F)c1 [compound 52] | 63% | 28% | 90% | 43% | – | – | – | – |
| CO/N=C(/C(=O)OC)c1cccc(C)c1CO/N=C(\C)c1cc(C)cc(C(F)(F)F)c1 [compound 65] | 93% | 77% | 100% | 87% | – | – | – | – |
| CNC(=O)/C(=N/OC)c1cccc(C)c1CO/N=C(\SC)c1cccc(Cl)c1 [drawing 979, reference compound] | – | – | – | – | – | 9% | 20% | – |
| CCc1cc(/C(C)=N/OCc2c(C)cccc2/C(=N\OC)C(=O)OC)cc(C(F)(F)F)c1 [compound 146] | 73% | 12% | 77% | 48% | – | – | – | – |
| CO/N=C(/C(=O)OC)c1cccc(C)c1CO/N=C(\C)c1ccc(Oc2ccc(Cl)cc2)cc1C(F)(F)F [compound 335] | 77% | 53% | 80% | 25% | – | – | – | – |
| CO/N=C(/C(=O)OC)c1cccc(C)c1CO/N=C(\C)c1ccccc1 [Ex. 30] | 53% | 1% | 77% | 2% | 2% | 1% | – | – |
| CNC(=O)/C(=N/OC)c1cccc(CF)c1CO/N=C(\C)c1cccc(C(F)(F)F)c1 [compound 26] | 12% | 0% | 19% | 1% | – | – | – | – |
